“And” between values parts separate entries of the source, which are not always exact repeats. Equal entries are not always repeated. “Also recorded” adds a separate entry of the source. Ends that are not written are not given here.
Legend:
[1] = test system: subcutaneous human osteosarcoma MG-63 xenograft tumor; assay: Detection of human osteosarcoma MG-63 cell cycle in nude mice; format: in vivo; settings: positive control Paclitaxel group (10 mg/kgBW twice a week)
Protocol: (B) Detection of Human Osteosarcoma MG-63 Cell Cycle in Nude Mice
1. Preparation of Single Cell Suspension of Solid Tumor
1.1 Tumor block was washed 3 times with PBS buffer and cut into small blocks (1-2 mm), then washed 3 times with PBS, and transferred into a 50 ml centrifuge tube.
1.2 0.25% trypsin solution was added to digested at 37′C for 20-40 min, and gently shaken once every 5 min, to separate cells. 1.3 2 to 5 ml of serum-containing medium was added to terminate the trypsin digestion.
1.4 The suspension was stood for 2-3 min, and transferred to a new centrifuge tube, and filtered with a 200-mesh nylon mesh twice.
1.5 The filtered suspension was centrifuged at 1000 rpm for 5 min, and removed the supernatant.
1.6 5 ml of PBS buffer was added to centrifuge again, and removed the supernatant.
1.7 1 to 2 ml of culture solution was added according to the amount of cells, and the cells were counted for standby.
2. Detection of Cell Cycle
1) The cell culture solution was collected into a centrifuge tube for standby. […]
5) Flow cytometry detection and analysis: the red fluorescence was detected by a flow cytometer at the excitation wavelength of 488 nm, and the light scattering was detected also. […]

[2] = Body weight and death of tumor-bearing nude mice in the in vivo efficacy test; parameters: species or system BALB/c nude mice; settings: each treatment group, 4 weeks intravenous administration
Protocol: 4-1. Nude mice were randomly divided into 5 groups: model group, positive control group, sp4 low-dose group, sp4 medium-dose group, and sp4 high-dose group, 6 mice each group (low-dose group: 4 mg/kgBW; medium-dose group: 8 mg/kgBW; high-dose group: 16 mg/kgBW; model group: injected with an equal volume of normal saline; positive control group: injected with paclitaxel at 10 mg/kgBW; administrated twice a week).
4-2. after divided into groups, animals were injected via tail veins at 4:00 pm every day; mice in the model group and the administration group were respectively injected with normal saline and drugs for 4 weeks, and the paclitaxel group was administered paclitaxel twice a week.
4-3, measured the tumor size and body weight on the day of grouping and every other day; TV=0.5*a*b^2, a represents long diameter, b represents short diameter.

[3] = Animal acute toxicity test, maximal tolerable dose (MTD); format: in vivo, ICR mice; settings: for Mice weight: 700 mg/kg BW dose group
Protocol: Embodiment 8 Animal Acute Toxicity Test—Maximal Tolerable Dose (MTD)
I. Experimental Conditions: GLP
1. Test animal: Healthy adult ICR mice, male, weight 19-20 g, n=10;
3. Test sample preparation method;
4. Administration route: tail vein injection in mice;
5. Dosing volume: 0.5 ml/time;
6. Frequency of administration: in accordance with FDA guidelines;
Acute toxicity refers to the toxic reaction produced by a drug within a certain period of time after a single dose or multiple-dose within 24 hours. In narrow sense, a single dose toxicity study is to investigate the acute toxic reactions after a single administration of a test substance. This guideline refers to single dose toxicity study in a broad sense, which can be obtained by single or multiple dosing within 24 hours;
II. Detection of Maximal Tolerable Dose (MTD)
Firstly, the working solutions at three concentrations that would not cause the death of test animals were prepared, and one animal was injected via tail veins (1.5 mL, by 3 times). The first dose was 1.5 mL of working solution with 1150 mg/kgBW, which was injected to mice by 3 times via tail veins within 24 hours. On the next day, if no death was found, the remaining 9 animals were injected with the same dose via tail veins (a total of n=10); if the first animal died, the dose would be reduced.

CC(=O)O[C@H]1C(=O)[C@@]2(C)[C@H]([C@H](OC(=O)c3ccccc3)[C@]3(O)C[C@H](OC(=O)[C@H](O)[C@@H](NC(=O)c4ccccc4)c4ccccc4)C(C)=C1C3(C)C)[C@]1(OC(C)=O)CO[C@@H]1C[C@@H]2O [Paclitaxel]
cell cycle effect in subcutaneous human osteosarcoma xenograft tumor models [1]: significant G1 phase arrest

FLFSLIPSAISG [sp4]
death in the in vivo efficacy test [2]: no death occurred | weight gain of tumor-bearing nude mice vs control group ([2]; P>0.05): not significantly different | Mice weight ([3]; individual mice No. 1-10, 2018 May 15): 20.5 g and 20.2 g (2×) and 20.6 g and 20.7 g and 20.4 g and 20.9 g and 20.1 g and 20 g and 20.3 g | Mice weight ([3]; individual mice No. 1-10, 2018 May 16): 20.5 g (3×) and 20.7 g and 21.3 g and 21.2 g and 20.8 g and 20.4 g (2×) and 21.5 g | Mice weight ([3]; individual mice No. 1-10, 2018 May 17): 21.1 g (3×) and 21.7 g and 21.3 g and 21.4 g and 20.8 g (2×) and 22.2 g and 21.2 g | Mice weight ([3]; individual mice No. 1-10, 2018 May 18): 21.5 g (3×) and 22.1 g and 21.9 g (3×) and 21.7 g and 22.7 g and 21.1 g | Mice weight ([3]; individual mice No. 1-10, 2018 May 19): 21.9 g and 21.6 g and 22.6 g (2×) and 22.5 g (3×) and 21.8 g (2×) and 23 g | Mice weight ([3]; individual mice No. 1-10, 2018 May 20): 22.3 g and 22.8 g (5×) and 22.4 g and 23.7 g and 22.9 g and 22.5 g | Mice weight ([3]; individual mice No. 1-10, 2018 May 21): 22.7 g and 22.9 g (2×) and 23.5 g and 23.1 g (3×) and 24.1 g and 23.3 g and 23.4 g | Mice weight ([3]; individual mice No. 1-10, 2018 May 22): 23.3 g and 23.5 g (2×) and 24.1 g and 23.6 g and 23.2 g and 24.8 g and 23.8 g (2×) and 23.4 g | Mice weight ([3]; individual mice No. 1-10, 2018 May 23): 24.0 g and 24.1 g (2×) and 24.8 g and 24.2 g (2×) and 23.7 g and 25.1 g and 24.5 g and 24.4 g | Mice weight ([3]; individual mice No. 1-10, 2018 May 24): 24.7 g (4×) and 25.2 g and 23.9 g and 25.6 g and 25.1 g and 24.8 g and 24.6 g | Mice weight ([3]; individual mice No. 1-10, 2018 May 25): 25.3 g and 25.5 g (2×) and 25.8 g and 25.1 g (3×) and 24.8 g and 26.1 g and 24.9 g | Mice weight ([3]; individual mice No. 1-10, 2018 May 26): 25.8 g and 25.9 g (3×) and 26.3 g and 25.6 g (2×) and 25.2 g and 26.5 g and 25.5 g | Mice weight ([3]; individual mice No. 1-10, 2018 May 27): 26.1 g and 26.2 g (2×) and 26.8 g and 26.3 g (2×) and 26.4 g and 27.2 g and 26 g and 25.8 g | Mice weight ([3]; individual mice No. 1-10, 2018 May 28): 27.2 g and 27.1 g and 27.3 g and 26.9 g and 26.8 g (3×) and 27.7 g and 26.4 g and 26.6 g | Mice weight ([3]; individual mice No. 1-10, 2018 May 29): 28.1 g and 27.9 g and 28.5 g and 27.2 g and 27.6 g and 27.5 g (2×) and 28.3 g and 27.1 g (2×) | Survival Rate % ([3]; 700 mg/kg, 3 times/9 h, n=10): 100% | toxic reactions and deaths within 2 weeks after administration ([3]; ICR mice, 700 mg/kgBW intravenous): no toxic reactions and deaths occurred; also recorded: no behavioral abnormalities and deaths were observed | toxic reactions and deaths within 24 hours ([3]; ICR mice, 700 mg/kgBW intravenous, three times within 24 h): no toxic reactions and deaths occurred; also recorded: no toxic reaction and death were observed | Survival or not ([3]; individual animals No. 1-10, 700 mg/kg, 3 times/9 h): Survival | MTD at 336 h ([3]; male, mouse, in vivo, iv, ICR mice, tail vein injection, administered by three times within 24 h): 700 mg/kg

From patent publication US11939399B2, “Synthetic peptide sp4 and use thereof” (TAIAN CITY QIHANG BIOTECHNOLOGY CO., priority 2018, dated 2024)
